# Reference: patent publication US9273067B2, “Pyrazolopyrimidine macrocycles as inhibitors of human immunodeficiency virus replication” (BRISTOL-MYERS SQUIBB COMPANY, priority 2014, dated 2016)
# “And” between values parts separate entries of the source, which are not always exact repeats. Identical values can stand only once. Like-named read-outs stand apart in the source and are kept apart here.
# How the values were obtained:
# [1] = not given; remark: listed apart in the source
# [2] = tested on: NL-RLuc virus (recombinant HIV NL4-3 with Renilla Luciferase) in MT-2 cells; test: Inhibition of HIV replication (NL-RLuc virus in MT-2 cells, luciferase readout); type: cell-based, human immunodeficiency virus (HIV); conditions: MT2, 120 h, NL-RLuc virus infecting MT-2 cells, 5 days of incubation, 10% FBS, luciferase quantitation; at least 2 experiments
# In short: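 NL4-3 carrying Renilla luciferase in place of part of nef, produced in 293T cells, was used to infect MT-2 cells in RPMI 1640/10% FBS with serial compound dilutions. After 5 days, virus growth was read by luciferase. EC50 came from the median effect equation over at least 2 experiments.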
smiles,measurement,setting,value
CCOC(=O)[C@@H](OC(C)(C)C)c1c(C)nc2cc3nn2c1N1CCC(C)(CC1)OCC=CCCc1cccc(c1)COC3,"ring closure, isolated yield","from C=CCCc1cccc(COCc2cc3nc(C)c([C@H](OC(C)(C)C)C(=O)OCC)c(N4CCC(C)(OCC=C)CC4)n3n2)c1, rcm bond, 20-membered ring, Grubbs II, DCM, 1.62 mM, 2.0 h, 2 steps",41.8%
CCOC(=O)[C@@H](OC(C)(C)C)c1c(C)nc2cc3nn2c1N1CCC(C)(CC1)OCC=CCOC1(CCCCC1)c1cn(nn1)C3,"ring closure, yield after HPLC","[1]; from C=CCOC1(C)CCN(c2c([C@H](OC(C)(C)C)C(=O)OCC)c(C)nc3cc(Cn4cc(C5(OCC=C)CCCCC5)nn4)nn23)CC1, rcm bond, 19-membered ring, Hoveyda-Grubbs II (5 mol%), then NaOH, 1,2-dichloroethane, 4.3 mM, 70.0 °C, 2.0 h, 2 steps",30.6% and 24.1%
CCOC(=O)[C@@H](OC(C)(C)C)c1c(C)nc2cc3nn2c1N1CCC(C)(CC1)OCC=CCOc1cccc(c1)-c1cn(nn1)C3,"ring closure, yield after HPLC","[1]; from C=CCOc1cccc(-c2cn(Cc3cc4nc(C)c([C@H](OC(C)(C)C)C(=O)OCC)c(N5CCC(C)(OCC=C)CC5)n4n3)nn2)c1, rcm bond, 21-membered ring, Hoveyda-Grubbs II (5 mol%), then H2, Pd/C, then NaOH, 1,2-dichloroethane, 1.8 mM, 70.0 °C, 2.0 h, 3 steps",37.2%
CCOC(=O)[C@@H](OC(C)(C)C)c1c(C)nc2cc3nn2c1N1CCC(C)(CC1)OCC=CCOc1ccccc1CC(=O)NC3,"ring closure, yield after HPLC","[1]; from C=CCOc1ccccc1CC(=O)NCc1cc2nc(C)c([C@H](OC(C)(C)C)C(=O)OCC)c(N3CCC(C)(OCC=C)CC3)n2n1, rcm bond, 20-membered ring, Hoveyda-Grubbs II (5 mol%), then NaOH, 1,2-dichloroethane, 8.6 mM, 70.0 °C, 4.0 h, 2 steps",11.6% and 31.6%
CCOC(=O)[C@@H](OC(C)(C)C)c1c(C)nc2cc3nn2c1N1CCC(C)(CC1)OCC=CC[C@H](C)Oc1cc(F)c(F)cc1COC3,"ring closure, yield after HPLC","[1]; from C=CCOC1(C)CCN(c2c([C@H](OC(C)(C)C)C(=O)OCC)c(C)nc3cc(COCc4cc(F)c(F)cc4O[C@@H](C)CC=C)nn23)CC1, rcm bond, 20-membered ring, Hoveyda-Grubbs II/CuI, DCE, 4.25 mM, 90.0 °C, 3.0 h",27%
CCOC(=O)[C@@H](OC(C)(C)C)c1c(C)nc2cc3nn2c1N1CCC(C)(CC1)OCC=CCc1cc(C)ccc1COC3,"ring closure, isolated yield","from C=CCOC1(C)CCN(c2c([C@H](OC(C)(C)C)C(=O)OCC)c(C)nc3cc(COCc4ccc(C)cc4CC=C)nn23)CC1, rcm bond, 18-membered ring, Grubbs II (1 eq), then NaBH4/MeOH, DCM, 1.62 mM, 40.0 °C, 2.0 h, 2 steps",62.6%
CCOC(=O)[C@@H](OC(C)(C)C)c1c(C)nc2cc3nn2c1N1CCC(C)(CC1)OCC=CCc1cc(F)c(F)cc1COC3,"ring closure, isolated yield","from C=CCOC1(C)CCN(c2c([C@H](OC(C)(C)C)C(=O)OCC)c(C)nc3cc(COCc4cc(F)c(F)cc4CC=C)nn23)CC1, rcm bond, 18-membered ring, Grubbs II (0.1 eq), then NaBH4/MeOH, DCM, 1.56 mM, 40.0 °C, 2.0 h, 2 steps",62.5%
CCOC(=O)[C@@H](OC(C)(C)C)c1c(C)nc2cc3nn2c1N1CCC(C)(CC1)OCC=CCc1cc(F)ccc1COC3,"ring closure, isolated yield","from C=CCOC1(C)CCN(c2c([C@H](OC(C)(C)C)C(=O)OCC)c(C)nc3cc(COCc4ccc(F)cc4CC=C)nn23)CC1, rcm bond, 18-membered ring, Grubbs II (1 eq), then NaBH4/MeOH, DCM, 1.6 mM, 40.0 °C, 2.0 h, 2 steps",44.7%
CCOC(=O)[C@@H](OC(C)(C)C)c1c(C)nc2cc3nn2c1N1CCC(C)(CC1)OCC=CCc1ccccc1COC3,"ring closure, isolated yield","from C=CCOC1(C)CCN(c2c([C@H](OC(C)(C)C)C(=O)OCC)c(C)nc3cc(COCc4ccccc4CC=C)nn23)CC1, rcm bond, 18-membered ring, Hoveyda-Grubbs II (20 mol%)/CuI, 1,2-dichloroethane, 1.4 mM, 70.0 °C, 2.0 h",76%
CCOC(=O)[C@@H](OC(C)(C)C)c1c(C)nc2cc3nn2c1N1CCC(C)(CC1)OCC=Cc1cc(C(F)(F)F)ccc1COC3,"ring closure, isolated yield","from C=CCOC1(C)CCN(c2c([C@H](OC(C)(C)C)C(=O)OCC)c(C)nc3cc(COCc4ccc(C(F)(F)F)cc4Br)nn23)CC1, cc_pd bond, 17-membered ring, Pd2(dba)3/PPh3/Et3N, MeCN, 35.1 mM, 120.0 °C, 23.0 h",62.9%
CCOC(=O)[C@@H](OC(C)(C)C)c1c(C)nc2cc3nn2c1N1CCC(C)(CC1)OCC=Cc1ccccc1CC=C3,"ring closure, isolated yield","from C=CCOC1(C)CCN(c2c([C@H](OC(C)(C)C)C(=O)OCC)c(C)nc3cc(C=CCc4ccccc4Br)nn23)CC1, cc_pd bond, 17-membered ring, Pd2(dba)3/PPh3/Et3N, acetonitrile, 35.2 mM, 120.0 °C, 20.0 h",51.6%
CCOC(=O)[C@@H](OC(C)(C)C)c1c(C)nc2cc3nn2c1N1CCC(C)(CC1)OCCCC[C@H](C)Oc1c(F)cc(F)cc1CCC3,"ring closure, yield after HPLC","[1]; from CCOC(=O)[C@@H](OC(C)(C)C)c1c(C)nc2cc(CCCc3cc(F)cc(F)c3O)nn2c1N1CCC(C)(OCCCC[C@@H](C)O)CC1, ether bond, 20-membered ring, PPh3/DEAD, THF, 6.4 mM, 3.0 h, 2 steps",37.6%
CCOC(=O)[C@@H](OC(C)(C)C)c1c(C)nc2cc3nn2c1N1CCC(C)(CC1)OCCCC[C@H](C)Oc1cc(F)c(F)cc1CCC3,"ring closure, yield after HPLC","[1]; from CCOC(=O)[C@@H](OC(C)(C)C)c1c(C)nc2cc(CCCc3cc(F)c(F)cc3O)nn2c1N1CCC(C)(OCCCC[C@@H](C)O)CC1, ether bond, 20-membered ring, PPh3/DEAD, THF, 10.5 mM, 3.0 h, 2 steps",19.2%
CCOC(=O)[C@@H](OC(C)(C)C)c1c(C)nc2cc3nn2c1N1CCC(C)(CC1)OCCCC[C@H](C)Oc1ccc(F)c(F)c1CCC3,"ring closure, yield after HPLC","[1]; from CCOC(=O)[C@@H](OC(C)(C)C)c1c(C)nc2cc(CCCc3c(O)ccc(F)c3F)nn2c1N1CCC(C)(OCCCC[C@@H](C)O)CC1, ether bond, 20-membered ring, PPh3/DEAD, THF, 5.2 mM, 3.0 h, 2 steps",23.6%
COC(=O)[C@@H](OC(C)(C)C)c1c(C)nc2cc3nn2c1N1CCC(C)(CC1)OCC=Cc1ccccc1COC3,"ring closure, isolated yield","from C=CCOC1(C)CCN(c2c([C@H](OC(C)(C)C)C(=O)OC)c(C)nc3cc(COCc4ccccc4Br)nn23)CC1, cc_pd bond, 17-membered ring, Pd2(dba)3/PPh3/Et3N, acetonitrile, 40.0 mM, 120.0 °C, 18.0 h",78%
"Cc1nc2cc3nn2c(c1[C@H](OC(C)(C)C)C(=O)O)N1CCC(C)(CC1)OCC=CC[C@H](C)Oc1ccc(F)cc1COC3 [Example 27, (2S)-2-(tert-Butoxy)-2-[(20S)-15-fluoro-4,20,26-trimethyl-11,19,25-trioxa-1,5,7,8-tetraazapentacyclo[24.2.2.1^6,^9.0^2,^7.0^13,^18]hentriaconta-2,4,6(31),8,13,15,17,22-octaen-3-yl]acetic acid]","ring closure, yield after HPLC","[1]; from C=CCOC1(C)CCN(c2c([C@H](OC(C)(C)C)C(=O)O)c(C)nc3cc(COCc4cc(F)ccc4O[C@@H](C)CC=C)nn23)CC1, rcm bond, 20-membered ring, Hoveyda-Grubbs II/CuI, DCE, 0.41 mM, 90.0 °C, 3.0 h",50.2%
same,EC50,[2],37 nM
"Cc1ccc2c(c1)COCc1cc3nc(C)c([C@H](OC(C)(C)C)C(=O)O)c(n3n1)N1CCC(C)(CC1)OCC=CC[C@H](C)O2 [Example 29, (2S)-2-(tert-Butoxy)-2-[(20S)-4,15,20,26-tetramethyl-11,19,25-trioxa-1,5,7,8-tetraazapentacyclo[24.2.2.1^6,^9.0^2,^7.0^13,^18]hentriaconta-2,4,6(31),8,13,15,17,22-octaen-3-yl]acetic acid]","ring closure, yield after HPLC","[1]; from C=CCOC1(C)CCN(c2c([C@H](OC(C)(C)C)C(=O)O)c(C)nc3cc(COCc4cc(C)ccc4O[C@@H](C)CC=C)nn23)CC1, rcm bond, 20-membered ring, Hoveyda-Grubbs II/CuI, DCE, 13.0 mM, 90.0 °C, 3.0 h",5.64%
same,EC50,[2],6 nM
"Cc1nc2cc3nn2c(c1[C@H](OC(C)(C)C)C(=O)O)N1CCC(C)(CC1)OCC=CC[C@H](C)Oc1cc(F)cc(F)c1COC3 [Example 31, (2S)-2-(tert-Butoxy)-2-[(20S)-14,16-difluoro-4,20,26-trimethyl-11,19,25-trioxa-1,5,7,8-tetraazapentacyclo[24.2.2.1^6,^9.0^2,^7.0^13,^18]hentriaconta-2,4,6(31),8,13,15,17,22-octaen-3-yl]acetic acid]","ring closure, yield after HPLC","[1]; from C=CCOC1(C)CCN(c2c([C@H](OC(C)(C)C)C(=O)O)c(C)nc3cc(COCc4c(F)cc(F)cc4O[C@@H](C)CC=C)nn23)CC1, rcm bond, 20-membered ring, Hoveyda-Grubbs II/CuI, DCE, 11.5 mM, 90.0 °C, 1.5 h",5.67%
same,EC50,[2],12 nM
"Cc1nc2cc3nn2c(c1[C@H](OC(C)(C)C)C(=O)O)N1CCC(C)(CC1)OCC=CC[C@H](C)Oc1cc(Cl)ccc1COC3 [Example 34, (2S)-2-(tert-Butoxy)-2-[(20S)-16-chloro-4,20,26-trimethyl-11,19,25-trioxa-1,5,7,8-tetraazapentacyclo[24.2.2.1^6,^9.0^2,^7.0^13,^18]hentriaconta-2,4,6(31),8,13,15,17,22-octaen-3-yl]acetic acid]","ring closure, yield after HPLC","[1]; from C=CCOC1(C)CCN(c2c([C@H](OC(C)(C)C)C(=O)O)c(C)nc3cc(COCc4ccc(Cl)cc4O[C@@H](C)CC=C)nn23)CC1, rcm bond, 20-membered ring, Hoveyda-Grubbs II/CuI, DCE, 31.5 mM, 90.0 °C, 1.5 h",7.32%
same,EC50,[2],5 nM
